No end group written: not given here.
Legend:
[1] = test system: E. saccharolyticus DPC 4902; test: Well diffusion assay, spectrum of bacteriocin activity; assay type: cell-based; conditions: 50 μl filtered supernatant of E. coli Tuner (DE3) transformants encoding the pediocin PA-1 leader, 7 mm wells, triplicate
Description: (§1) Bacteriocin activity was determined using well diffusion assays (WDAs). For Tuner^TM (DE3) E. coli transformants both the cell supernatant and the cell lysates were analyzed for antimicrobial activity, whilst only the supernatants were analyzed for L. paracasei NFBC338 cells. Supernatant was isolated by centrifugation of the liquid cultures at 4000 RCF for 15 min, these supernatants were then filtered using 0.20 μm membrane filters. For cell lysates, cell pellets were resuspended in 5 ml of phosphate-buffered saline (PBS), cells were lysed by sonication using a MSE Soniprep 150 (MSE, London, UK). Lysates were subsequently centrifuged at 4000 RCF for 15 min and the resulting supernatants were filtered using 0.20 μm membrane filters. For the indicator plates, 50 μl of an overnight culture of the indicator strain was added to the appropriate media containing 1% agar. Plates were cooled and 7 mm wells were bored in the agar. 50 μl of the cell supernatants/lysates being tested were added to each well and plates were refrigerated for 2 h prior to incubation under the appropriate conditions. WDAs were carried out in triplicate for each bacteriocin.
(§2) E. coli Tuner^TM (DE3) cells transformed with the newly constructed plasmids were grown in LB supplemented with glucose to maintain a low-copy number and bacteriocin expression was induced by co-incubation of the clones with 50 μM IPTG for 3 h. WDAs were used to identify bacteriocin activity from the bacterial supernatants and cell lysates. Bacteriocins were exclusively found in the bacterial supernatant. Antimicrobial activity was lower in cases where the native leader of the bacteriocin sequence was used; with only four of the nine strains displaying zones of inhibition against a sensitive indicator (pediocin 20336a has an identical leader to pediocin PA-1). For expression in L. paracasei NFBC338, cells were transformed by electroporation with the bacteriocin-containing pNZ44 vectors. Positive transformants were grown overnight and the neutralized cell free supernatant was used to identify bacteriocin production in WDAs.
(§3) The spectrum of activity was determined using WDAs against 32 indicator strains for bacteriocins produced by the E. coli transformants encoding the pediocin leader (Table 2). Despite being of the same class of bacteriocins, these novel antimicrobials display a varying spectrum of activity. […] Many of these bacteriocins, however, can inhibit a wide range of Gram positive bacteria including potential pathogens such as Enterococcus faecalis. As with most class IIa bacteriocins, these also display potent anti-listerial activity.

E.mundtii LMG 10748 = test: as above; assay type: cell-based; conditions: 50 μl filtered supernatant of E. coli Tuner (DE3) transformants encoding the pediocin PA-1 leader, 7 mm wells, triplicate
Description: as §1, §2, §3

[2] = test system: Enterococcus faecalis LMG 7397; test: as above; assay type: cell-based; conditions: 50 μl filtered supernatant of E. coli Tuner (DE3) transformants encoding the pediocin PA-1 leader, 7 mm wells, 1% agar, triplicate
Description: as §1, §2, §3

L. amylophilus DSM 20509 = test: as above; assay type: cell-based; conditions: 50 μl filtered supernatant of E. coli Tuner (DE3) transformants encoding the pediocin PA-1 leader, 7 mm wells, triplicate
Description: as §1, §2, §3

L. apodemi DSM 16654 = test: as above; assay type: cell-based; conditions: 50 μl filtered supernatant of E. coli Tuner (DE3) transformants encoding the pediocin PA-1 leader, 7 mm wells, triplicate
Description: as §1, §2, §3

L. crustorum JCM 15951 = test: as above; assay type: cell-based; conditions: 50 μl filtered supernatant of E. coli Tuner (DE3) transformants encoding the pediocin PA-1 leader, 7 mm wells, triplicate
Description: as §1, §2, §3

L. kimchicus JCM 15530 = test: as above; assay type: cell-based; conditions: 50 μl filtered supernatant of E. coli Tuner (DE3) transformants encoding the pediocin PA-1 leader, 7 mm wells, triplicate
Description: as §1, §2, §3

L. mali DSM 20444 = test: as above; assay type: cell-based; conditions: 50 μl filtered supernatant of E. coli Tuner (DE3) transformants encoding the pediocin PA-1 leader, 7 mm wells, triplicate
Description: as §1, §2, §3

L. nodensis DSM 16982 = test: as above; assay type: cell-based; conditions: 50 μl filtered supernatant of E. coli Tuner (DE3) transformants encoding the pediocin PA-1 leader, 7 mm wells, triplicate
Description: as §1, §2, §3

[3] = test system: L. paralimentarius DSM 13961; test: as above; assay type: cell-based; conditions: 50 μl filtered supernatant of E. coli Tuner (DE3) transformants encoding the pediocin PA-1 leader, 7 mm wells, triplicate
Description: as §1, §2, §3

L. plantarum DSM 13273 = test: as above; assay type: cell-based; conditions: 50 μl filtered supernatant of E. coli Tuner (DE3) transformants encoding the pediocin PA-1 leader, 7 mm wells, triplicate
Description: as §1, §2, §3

[4] = test system: Li. monocytogenes DPC 6893; test: as above; assay type: cell-based; conditions: 50 μl filtered supernatant of E. coli Tuner (DE3) transformants encoding the pediocin PA-1 leader, 7 mm wells, triplicate
Description: as §1, §2, §3

[5] = test system: Li. monocytogenes DPC 6894; test: as above; assay type: cell-based; conditions: 50 μl filtered supernatant of E. coli Tuner (DE3) transformants encoding the pediocin PA-1 leader, 7 mm wells, triplicate
Description: as §1, §2, §3

[6] = test system: Li. monocytogenes WSL 1416; test: as above; assay type: cell-based; conditions: 50 μl filtered supernatant of E. coli Tuner (DE3) transformants encoding the pediocin PA-1 leader, 7 mm wells, triplicate
Description: as §1, §2, §3

[7] = test system: Listeria innocua DPC 3572; test: as above; assay type: cell-based; conditions: 50 μl filtered supernatant of E. coli Tuner (DE3) transformants encoding the pediocin PA-1 leader, 7 mm wells, triplicate
Description: as §1, §2, §3

P. clausenii DSM 14800 = test: as above; assay type: cell-based; conditions: 50 μl filtered supernatant of E. coli Tuner (DE3) transformants encoding the pediocin PA-1 leader, 7 mm wells, triplicate
Description: as §1, §2, §3

[8] = test system: P. ethanolidurans DSM 22301; test: as above; assay type: cell-based; conditions: 50 μl filtered supernatant of E. coli Tuner (DE3) transformants encoding the pediocin PA-1 leader, 7 mm wells, triplicate
Description: as §1, §2, §3

[9] = test system: Pediococcus stilesii DSM 18001; test: as above; assay type: cell-based; conditions: 50 μl filtered supernatant of E. coli Tuner (DE3) transformants encoding the pediocin PA-1 leader, 7 mm wells, triplicate
Description: as §1, §2, §3

32 indicator strains = test: Well diffusion assays against the panel of 32 indicator strains; assay type: cell-based; conditions: for antimicrobial activity / spectrum, in words: crude supernatant from the E. coli heterologous host, pediocin PA-1 leader; for Total no. of strains inhibited: of 32 indicator strains, supernatant of E. coli transformants encoding the pediocin leader
Description: as §1, §2, §3

L. innocua DPC3572 = test: Bacteriocin activity (BU/ml), dilution series in well diffusion assay; assay type: cell-based, Listeria innocua; conditions: inverse of the highest dilution of bacterial supernatant showing activity in a well diffusion assay
Description: as §1, §2

L. amylovorus DSM 20531 = test: Well diffusion assay, spectrum of bacteriocin activity; assay type: cell-based; conditions: 50 μl filtered supernatant of E. coli Tuner (DE3) transformants encoding the pediocin PA-1 leader, 7 mm wells, triplicate
Description: as §1, §2, §3

[10] = produced by E. coli Tuner (DE3)
[11] = produced by L. paracasei NFBC338, neutralized cell free supernatant

Substance | radius of the zone of inhibition [1] | radius of the zone of inhibition (E.mundtii LMG 10748) | radius of the zone of inhibition [2] | radius of the zone of inhibition (L. amylophilus DSM 20509) | radius of the zone of inhibition (L. apodemi DSM 16654) | radius of the zone of inhibition (L. crustorum JCM 15951) | radius of the zone of inhibition (L. kimchicus JCM 15530) | radius of the zone of inhibition (L. mali DSM 20444) | radius of the zone of inhibition [3] | radius of the zone of inhibition (L. plantarum DSM 13273) | radius of the zone of inhibition [4] | radius of the zone of inhibition [5] | radius of the zone of inhibition [6] | radius of the zone of inhibition [7] | radius of the zone of inhibition (P. clausenii DSM 14800) | radius of the zone of inhibition [8] | radius of the zone of inhibition [9] | Total no. of strains inhibited (32 indicator strains) | Bacteriocin Activity (BU/ml) vs. L. innocua DPC3572 (L. innocua DPC3572; [10]) | Bacteriocin Activity (BU/ml) vs. L. innocua DPC3572 (L. innocua DPC3572; [11]) | other results
–KYYGNGLYCG-KHSCSVDWGKATTCIINNGAMAWATGGHQGTHKC—— (bicyclic or more) [Pediocin 20336a (Ped20336), novel pediocin-like class IIa bacteriocin encoded by P. pentosaceus DSM 20336, heterologously expressed] | 5.67 ± 0.47 millimeters | 4.67 ± 0.47 millimeters | 4 ± 0 millimeters | 0.33 ± 0.47 millimeters | 3.67 ± 0.47 millimeters | 1 ± 0 millimeters | 0.33 ± 0.47 millimeters | 6.33 ± 0.47 millimeters | 1 ± 0.47 millimeters | 1.33 ± 0.47 millimeters | 2.67 ± 0.47 millimeters | 4.33 ± 0.47 millimeters | 3.33 ± 0.94 millimeters | 7.33 ± 0.47 millimeters | 0.67 ± 0.47 millimeters | 5.67 ± 0.47 millimeters | 1 ± 0 millimeters | 18 | + (+ = 0 – 160 BU/ml) | + (+ = 0 – 160 BU/ml) | radius of the zone of inhibition (L. nodensis DSM 16982): 1.67 ± 0.47 millimeters; antimicrobial activity / spectrum, in words (32 indicator strains): inhibited the growth of a larger number of the indicators tested than pediocin PA-1
–KYYGNGVTCG-KHSCSVDWGKATTCIINNGAMAWATGGHQGNHKC—– (bicyclic or more) (KYYGNGVTCGKHSCSVDWGKATTCIINNGAMAWATGGHQGNHKC; not fully specified (bridges); cysteine pairing not given here; UniProt P29430 19-62, looked up) [Pediocin PA-1 (PedA), original class IIa bacteriocin of P. acidilactici LMG 2351, used as a control; heterologously expressed, reference compound] | 6 ± 0 millimeters | 5 ± 0 millimeters | 4.33 ± 0.47 millimeters | – | 3.33 ± 0.47 millimeters | 0.33 ± 0.47 millimeters | – | 7.67 ± 0.47 millimeters | 0.67 ± 0.47 millimeters | 0.33 ± 0.47 millimeters | 3 ± 0 millimeters | 5 ± 0 millimeters | 3.33 ± 0.94 millimeters | 8 ± 0 millimeters | – | 5.67 ± 0.47 millimeters | 1 ± 0 millimeters | 14 | + (+ = 0 – 160 BU/ml) | ++ (++ = 320 – 2560 BU/ml) | –
–KYYGNGVSCTKKHGCKVNWGQAFTCSVNRFANFGH–G————-NC— (bicyclic or more) [Hordeiocin (Hrd), novel pediocin-like class IIa bacteriocin encoded by L. hordei DSM 19519, heterologously expressed] | 3.67 ± 0.47 millimeters | 2.67 ± 0.47 millimeters | 2.67 ± 0.47 millimeters | 2.50 ± 0.41 millimeters | 2.67 ± 0.47 millimeters | 1 ± 0 millimeters | 3 ± 0 millimeters | 4.33 ± 0.47 millimeters | 1 ± 0.47 millimeters | 1.33 ± 0.47 millimeters | 2 ± 0 millimeters | 4 ± 0 millimeters | 2 ± 0.82 millimeters | 4.67 ± 0.47 millimeters | 2 ± 0 millimeters | 3.67 ± 0.47 millimeters | 1 ± 0 millimeters | 18 | +++ (+++ = 5120 – 10240 BU/ml) | ++ (++ = 320 – 2560 BU/ml) | radius of the zone of inhibition (L. nodensis DSM 16982): 3.67 ± 0.47 millimeters; antimicrobial activity / spectrum, in words (32 indicator strains): inhibited the growth of a larger number of the indicators tested than pediocin PA-1
–KYYGNGVYCG-KHKCRVDWGQAWGCSVNRWGAAVGTGGKATIGHC— (bicyclic or more) [Ruminicin (Rum), novel pediocin-like class IIa bacteriocin encoded by L. ruminis DSM 20403, heterologously expressed] | 2 ± 0 millimeters | 2 ± 0 millimeters | 1.17 ± 0.24 millimeters | 1.33 ± 0.47 millimeters | 1.67 ± 0.47 millimeters | 0.33 ± 0.47 millimeters | – | 2 ± 0 millimeters | – | – | 1 ± 0 millimeters | 2 ± 0 millimeters | 1 ± 0 millimeters | 3.33 ± 0.47 millimeters | 1 ± 0 millimeters | 2.17 ± 0.24 millimeters | – | 14 | +++ (+++ = 5120 – 10240 BU/ml) | +++ (+++ = 5120 – 10240 BU/ml) | radius of the zone of inhibition (L. amylovorus DSM 20531): 0.67 millimeters

— publication PMC6036575, “Reincarnation of Bacteriocins From the Lactobacillus Pangenomic Graveyard” (Frontiers in Microbiology, 2018)
